Measured values: PubChem BioAssay (NCI)
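In this assay, cells in 96-well plates receive the compound at five concentrations for 48 hours. Endpoints are linearly interpolated between the surrounding concentrations. TGI is the concentration that stops growth completely.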 Where a SMILES comes first, the peptide text is derived from it. [ ]: non-standard residue; d: D form. The star is where a group is joined. ξ: configuration not given here. Propanoyl(3-(4-MeO-Ph)) = COc1ccc(CCC(=O)*)cc1; Thr(3ξ) = CC(O)[C@H](N)C(=O)O; dNMeL = CN[C@H](CC(C)C)C(=O)O; ξLac = CC(O)C(=O)O

How the values were obtained:
Assay in all cases: NCI tumour cell line growth inhibition, 48 h
SR leukemia = system: SR leukemia
MDA-MB-231 breast = system: MDA-MB-231 breast
COLO 205 colon = system: COLO 205 colon
UACC-62 melanoma = system: UACC-62 melanoma
OVCAR-4 ovarian = system: OVCAR-4 ovarian
TK-10 renal = system: TK-10 renal
T-47D breast = system: T-47D breast
786-0 renal = system: 786-0 renal
MOLT-4 leukemia = system: MOLT-4 leukemia
SF-539 CNS = system: SF-539 CNS
UO-31 renal = system: UO-31 renal
CAKI-1 renal = system: CAKI-1 renal
NCI-H23 lung = system: NCI-H23 lung
HOP-62 NSCLC = system: HOP-62 NSCLC
SK-MEL-28 melanoma = system: SK-MEL-28 melanoma
NCI-H226 lung = system: NCI-H226 lung
M14 melanoma = system: M14 melanoma
SW-620 colon = system: SW-620 colon
OVCAR-3 ovarian = system: OVCAR-3 ovarian
NCI-H460 lung = system: NCI-H460 lung
HCT-116 colon = system: HCT-116 colon
SK-MEL-5 melanoma = system: SK-MEL-5 melanoma
SK-OV-3 ovarian = system: SK-OV-3 ovarian
SK-MEL-2 melanoma = system: SK-MEL-2 melanoma
HOP-92 NSCLC = system: HOP-92 NSCLC
SN12C renal = system: SN12C renal
KM12 colon = system: KM12 colon
HCC-2998 colon = system: HCC-2998 colon
HT29 colon = system: HT29 colon
K-562 leukemia = system: K-562 leukemia
RXF 393 renal = system: RXF 393 renal
LOX IMVI melanoma = system: LOX IMVI melanoma
OVCAR-8 ovarian = system: OVCAR-8 ovarian
MALME-3M melanoma = system: MALME-3M melanoma
MDA-MB-435 = system: MDA-MB-435
A498 renal = system: A498 renal
HL-60(TB) leukemia = system: HL-60(TB) leukemia
NCI/ADR-RES ovarian = system: NCI/ADR-RES ovarian
CCRF-CEM leukemia = system: CCRF-CEM leukemia
RPMI-8226 leukemia = system: RPMI-8226 leukemia
U251 CNS = system: U251 CNS
NCI-H522 lung = system: NCI-H522 lung
SF-268 CNS = system: SF-268 CNS
HCT-15 colon = system: HCT-15 colon
ACHN renal = system: ACHN renal
SNB-75 CNS = system: SNB-75 CNS
OVCAR-5 ovarian = system: OVCAR-5 ovarian
HS 578T breast = system: HS 578T breast
EKVX NSCLC = system: EKVX NSCLC
SNB-19 CNS = system: SNB-19 CNS
BT-549 breast = system: BT-549 breast
PC-3 prostate = system: PC-3 prostate
MDA-N = system: MDA-N
UACC-257 melanoma = system: UACC-257 melanoma
DU-145 prostate = system: DU-145 prostate
SF-295 CNS = system: SF-295 CNS
IGROV1 ovarian = system: IGROV1 ovarian
A549 NSCLC = system: A549 NSCLC
MCF7 breast = system: MCF7 breast
KM20L2 colon = system: KM20L2 colon
DMS 114 small cell lung = system: DMS 114 small cell lung
DLD-1 colon = system: DLD-1 colon
DMS 273 small cell lung = system: DMS 273 small cell lung
SNB-78 CNS = system: SNB-78 CNS
XF 498 CNS = system: XF 498 CNS
LXFL 529 NSCLC = system: LXFL 529 NSCLC
M19-MEL melanoma = system: M19-MEL melanoma

Measured: TGI

COC(=O)[C@@H](NC(=O)[C@@H](CC(C)C)N(C)C(=O)[C@@H]1CCCN1C(=O)C(C)O)C(C)OC(=O)CCc1ccc(OC)cc1 (some centres undefined) (H-[ξLac]P[dNMeL][Thr(3ξ)](Propanoyl(3-(4-MeO-Ph)))-OMe)
not listed: KM20L2 colon | DMS 114 small cell lung | DLD-1 colon | DMS 273 small cell lung | SNB-78 CNS | XF 498 CNS | LXFL 529 NSCLC | M19-MEL melanoma
> 100 µM: all other assays above

N#Cc1ccc(Nc2cnc3ccc(N)cc3n2)cc1
not listed: MDA-MB-231 breast | T-47D breast | MDA-MB-435 | A498 renal | NCI/ADR-RES ovarian | HS 578T breast | BT-549 breast | PC-3 prostate | MDA-N | DU-145 prostate | IGROV1 ovarian | MCF7 breast
> 100 µM: all other assays above
